From patent publication US8329726B2, “Inhibitors of VEGF receptor and HGF receptor signaling” (MethylGene Inc., priority 2005, dated 2012)

Legend:
Colo265 = experiment: In vivo solid tumor disease model, Colo265; design: species or system female athymic CD1 mice; details: Colo265, 30 mg/kg i.p. once daily, 14 days
VEGF receptor KDR = target: T1, VEGF receptor KDR (Homo sapiens, UniProt P35968); experiment: In vitro receptor tyrosine kinase assay (DELFIA), VEGF receptor KDR; assay type: biochemical; details: GST-VEGFR2 806-1356, 0.6 uM ATP, DELFIA; read-out: VEGFR (IC50)
T1 construct: made in house; host or cells: Sf9 cells (Spodoptera frugiperda), baculovirus
T1 sequence (P35968 806-1356): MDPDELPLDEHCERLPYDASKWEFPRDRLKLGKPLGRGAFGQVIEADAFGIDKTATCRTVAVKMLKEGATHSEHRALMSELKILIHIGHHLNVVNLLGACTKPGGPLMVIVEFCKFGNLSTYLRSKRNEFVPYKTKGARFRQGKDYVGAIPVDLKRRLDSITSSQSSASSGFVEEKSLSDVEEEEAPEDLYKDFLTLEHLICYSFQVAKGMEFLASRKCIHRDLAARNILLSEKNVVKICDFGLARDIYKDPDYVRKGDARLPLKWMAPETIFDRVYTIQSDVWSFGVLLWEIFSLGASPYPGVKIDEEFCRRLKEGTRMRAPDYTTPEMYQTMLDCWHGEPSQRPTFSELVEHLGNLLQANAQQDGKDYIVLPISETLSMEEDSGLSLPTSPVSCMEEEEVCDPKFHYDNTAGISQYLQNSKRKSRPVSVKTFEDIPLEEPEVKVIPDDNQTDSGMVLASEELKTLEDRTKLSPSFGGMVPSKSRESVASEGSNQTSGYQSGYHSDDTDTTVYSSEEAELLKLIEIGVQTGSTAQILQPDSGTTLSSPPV

TPR-MET fusion protein = target: T2, TPR-MET fusion protein (Homo sapiens, UniProt P08581); experiment: C-Met phosphorylation cell-based assay (MNNGHOS cells); details: MNNGHOS cells, 3 hours treatment, immunoblot; read-out: Y1230-34-35 TPR-MET phosphorylation (IC50)
T2 construct: the MET gene on chromosome 7 encoding for its cytoplasmic region catalytic domain; host or cells: MNNGHOS cells; the other entry of the earlier key: TPR (P12270, Nucleoprotein TPR)
T2 sequence (P08581 with tags, fused parts or gaps): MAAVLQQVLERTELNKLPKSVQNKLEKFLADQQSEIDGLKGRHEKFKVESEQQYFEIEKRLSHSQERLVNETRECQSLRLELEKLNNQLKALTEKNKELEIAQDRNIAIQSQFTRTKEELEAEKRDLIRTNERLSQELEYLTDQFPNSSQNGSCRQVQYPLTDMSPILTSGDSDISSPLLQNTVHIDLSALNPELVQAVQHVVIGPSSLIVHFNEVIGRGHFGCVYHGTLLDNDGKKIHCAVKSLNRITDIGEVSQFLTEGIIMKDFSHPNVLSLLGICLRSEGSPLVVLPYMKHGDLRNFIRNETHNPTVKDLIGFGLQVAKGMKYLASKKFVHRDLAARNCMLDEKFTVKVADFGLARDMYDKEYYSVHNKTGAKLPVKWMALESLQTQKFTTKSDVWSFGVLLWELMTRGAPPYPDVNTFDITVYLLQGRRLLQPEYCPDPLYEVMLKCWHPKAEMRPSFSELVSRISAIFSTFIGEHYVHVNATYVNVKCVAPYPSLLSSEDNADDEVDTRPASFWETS
Source text: C-Met Phosphorylation Cell-Based Assay
Signal was quantitated by densitometry on Alpha-Imager.

[1] = target: T3, recombinant human c-Met/HGF receptor (Homo sapiens, UniProt P08581); experiment: In vitro receptor tyrosine kinase assay (DELFIA), c-Met/HGF receptor; assay type: biochemical; details: recombinant c-Met IC, 10 uM ATP, DELFIA; read-out: C-Met (IC50)
T3 construct: His tag (pBlueBacHis2A vector); made in house; host or cells: Hi-5 cells (Trichoplusia ni), baculovirus
T3 sequence (P08581 1078-1337): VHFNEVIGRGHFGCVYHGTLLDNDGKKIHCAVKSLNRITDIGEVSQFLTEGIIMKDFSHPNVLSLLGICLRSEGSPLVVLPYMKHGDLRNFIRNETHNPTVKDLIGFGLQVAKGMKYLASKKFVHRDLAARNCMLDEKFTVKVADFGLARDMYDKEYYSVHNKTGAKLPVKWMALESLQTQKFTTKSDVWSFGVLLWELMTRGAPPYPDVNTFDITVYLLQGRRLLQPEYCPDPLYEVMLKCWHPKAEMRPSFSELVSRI
Description: Cell pellets were frozen at −80° C. until purification was performed.
The coated plates were washed and stored at 4° C. […] After incubation, the kinase reactions were quenched with EDTA and the plates were washed.

U87MG = experiment: In vivo solid tumor disease model, U87MG; design: species or system female athymic CD1 mice; details: 75 mg/kg p.o. once daily, 14 days
Source text: In Vivo Solid Tumor Disease Model
This test measures the capacity of compounds to inhibit solid tumor growth.
Tumor xenografts are established in the flank of female athymic CD1 mice (Charles River Inc.), by subcutaneous injection of 1×10^6 U87, A431 or SKLMS cells/mouse. Once established, tumors are then serially passaged s.c. in nude mice hosts. Tumor fragments from these host animals are used in subsequent compound evaluation experiments. For compound evaluation experiments female nude mice weighing approximately 20 g are implanted s.c. by surgical implantation with tumor fragments of ˜30 mg from donor tumors. When the tumors are approximately 100 mm^3 in size (˜7-10 days following implantation), the animals are randomized and separated into treatment and control groups. Each group contains 6-8 tumor-bearing mice, each of which is ear-tagged and followed individually throughout the experiment.
Mice are weighed and tumor measurements are taken by calipers three times weekly, starting on Day 1. These tumor measurements are converted to tumor volume by the well-known formula […]. The experiment is terminated when the control tumors reach a size of approximately 1500 mm^3. […] In addition to tumor volumes, body weight of animals is monitored twice weekly for up to 3 weeks. […]

A549 = experiment: In vivo solid tumor disease model, A549; design: species or system female athymic CD1 mice; details: 14 days
MV4-11 = experiment: In vivo solid tumor disease model, MV4-11; design: species or system female athymic CD1 mice; details: MV4-11, 20 mg/kg p.o. once daily, 14 days

CN(C(=O)CC(=O)Nc1ccc(Oc2ccnc3cc(-c4cn(CCN5CCCC5)cn4)sc23)c(F)c1)c1ccccc1
Tumor Growth Inhibition (%) (Colo265): b (% TGI in the range of 50-74)

COc1ccccc1NC(=O)CC(=O)Nc1ccc(Oc2ccnc3cc(-c4cncn4C)sc23)c(F)c1 [Compound 28c, N^1-(3-Fluoro-4-(2-(1-methyl-1H-imidazol-5-yl)thieno[3,2-h]pyridin-7-yloxy)phenyl)-N^3-(2-methoxyphenyl)malonamide]
IC50 (VEGF receptor KDR): 13 nM | IC50 (TPR-MET fusion protein): 590 nM | IC50 [1]: 40 nM

Cn1ccnc1-c1cc2nccc(Oc3ccc(NC(=O)CC(=O)Nc4ccccc4F)cc3F)c2s1 [Compound 30a, N^1-(3-Fluoro-4-(2-(1-methyl-1H-imidazol-2-yl)thieno[3,2-b]pyridin-7-yloxy)phenyl)-N^3-(2-fluorophenyl)malonamide]
IC50 (VEGF receptor KDR): 5 nM | IC50 (TPR-MET fusion protein): 28 nM | IC50 [1]: 31 nM

CN(C(=O)CC(=O)Nc1ccc(Oc2ccnc3cc(-c4nccn4C)sc23)c(F)c1)c1ccccc1 [Compound 32, N^1-(3-Fluoro-4-(2-(1-methyl-1H-imidazol-2-yl)thieno[3,2-b]pyridin-7-yloxy)phenyl)-N^3-methyl-N^3-phenylmalonamide]
IC50 (VEGF receptor KDR): 5 nM | IC50 (TPR-MET fusion protein): > 5000 nM | IC50 [1]: 109 nM

Cn1ccnc1-c1cc2nccc(Oc3ccc(NC(=O)CC(=O)Nc4ccncc4)cc3F)c2s1 [Compound 34, N^1-{3-Fluoro-4-[2-(1-methyl-1H-imidazol-2-yl)-thieno[3,2-b]pyridin-7-yloxy]-phenyl}-N^3-pyridin-4-yl-malonamide]
IC50 (VEGF receptor KDR): 19 nM | IC50 (TPR-MET fusion protein): > 5000 nM | IC50 [1]: 365 nM

Cn1ccnc1-c1cc2nccc(Oc3ccc(NC(=O)CC(=O)Nc4cccnc4)cc3F)c2s1 [Compound 40, N^1-(3-Fluoro-4-(2-(1-methyl-1H-imidazol-2-yl)thieno[3,2-b]pyridin-7-yloxy)phenyl)-N^3-(pyridine-3-yl)malonamide]
IC50 (VEGF receptor KDR): 13 nM | IC50 (TPR-MET fusion protein): ~500 nM | IC50 [1]: 268 nM

CCn1cnc(-c2cc3nccc(Oc4ccc(NC(=O)CC(=O)Nc5ccccc5)cc4F)c3s2)c1 [drawing 460]
Tumor Growth Inhibition (%) (U87MG): b (% TGI in the range of 50-74)

CCn1cnc(-c2cc3nccc(Oc4ccc(NC(=O)CC(=O)Nc5ccccc5F)cc4F)c3s2)c1 [drawing 461]
Tumor Growth Inhibition (%) (U87MG): b (% TGI in the range of 50-74)

CN(C)Cc1cccc(-c2cc3nccc(Oc4ccc(NC(=O)CC(=O)Nc5ccccc5F)cc4F)c3s2)c1 [drawing 462]
Tumor Growth Inhibition (%) (A549; A549, 20 mg/kg p.o. once daily): b (% TGI in the range of 50-74)

CCn1cnc(-c2cc3nccc(Oc4ccc(NC(=O)C5(C(=O)Nc6ccccc6)CC5)cc4F)c3s2)c1 [drawing 463]
Tumor Growth Inhibition (%) (A549; A549, 40 mg/kg p.o. once daily): b (% TGI in the range of 50-74)

CN1CCN(CCN(C)Cc2ccc(-c3cc4nccc(Oc5ccc(NC(=O)CC(=O)Nc6ccccc6)cc5F)c4s3)cc2)CC1 [drawing 464]
Tumor Growth Inhibition (%) (MV4-11): b (% TGI in the range of 50-74)
